Assay results from patent US20050154042A1, “N-alkyl pyrroles as HMG-CoA reductase inhibitors” (priority 2003, published 2005).
Counter-ions that a name gives are not always drawn.

| SMILES | melting point |
| --- | --- |
| CC(C)n1c(/C=C/[C@@H](O)C[C@@H](O)CC(=O)O)c(-c2ccc(F)cc2)c(-c2ccccc2)c1C(=O)Nc1ccc(S(N)(=O)=O)cc1 (as salt: sodium) [Example 5, (3R,5S)-7-[3-(4-Fluoro-phenyl)-1-isopropyl-4-phenyl-5-(4-sulfamoyl-phenylcarbamoyl)-1H-pyrrol-2-yl]-3,5-dihydroxy-hept-6-enoic Acid Sodium Salt] | 255 to 256 °C |
| CC(C)n1c(CCC(O)C[C@@H](O)CC(=O)O)c(-c2ccc(F)cc2)c(-c2ccccc2)c1C(=O)Nc1ccc(F)cc1 (stereo partly drawn) (as salt: sodium) [Example 8, (3R)-7-[3-(4-Fluoro-phenyl)-5-(4-fluoro-phenylcarbamoyl)-1-isopropyl-4-phenyl-1H-pyrrol-2-yl]-3,5-dihydroxy-heptanoic Acid Sodium Salt] | 240 to 242 °C |
| CC(C)n1c(CC[C@@H](O)C[C@@H](O)CC(=O)O)c(-c2ccc(F)cc2)c(-c2ccccc2)c1C(=O)NCc1ccc(F)cc1 (as salt: sodium) [Example 9, (3R,5R)-7-[5-(4-Fluoro-benzylcarbamoyl)-3-(4-fluoro-phenyl)-1-isopropyl-4-phenyl-1H-pyrrol-2-yl]-3,5-dihydroxy-heptanoic Acid Sodium Salt] | 218 to 220 °C |
| CC(C)n1c(/C=C/[C@@H](O)C[C@@H](O)CC(=O)O)c(-c2ccc(F)cc2)c(-c2ccccc2)c1C(=O)NCc1ccc(F)cc1 (as salt: sodium) [Example 10, (3R,5S)-7-[5-(4-Fluoro-benzylcarbamoyl)-3-(4-fluoro-phenyl)-1-isopropyl-4-phenyl-1H-pyrrol-2-yl]-3,5-dihydroxy-hept-6-enoic Acid Sodium Salt] | 221 to 223 °C |
| CC(C)n1c(CC[C@@H](O)C[C@@H](O)CC(=O)O)c(-c2ccc(F)cc2)c(-c2ccc(F)cc2)c1C(=O)Nc1ccc(S(N)(=O)=O)cc1 (as salt: sodium) [Example 11, (3R,5R)-7-[3,4-Bis-(4-fluoro-phenyl)-1-isopropyl-5-(4-sulfamoyl-phenylcarbamoyl)-1H-pyrrol-2-yl]-3,5-dihydroxy-heptanoic Acid Sodium Salt] | 261 to 263 °C |
| CC(C)n1c(CC[C@@H](O)C[C@@H](O)CC(=O)O)c(-c2ccc(F)cc2)c(-c2ccc(F)cc2)c1C(=O)Nc1ccc(CC(N)=O)cc1 (as salt: sodium) [Example 13] | 248 to 250 °C |
| CC(C)n1c(/C=C/[C@@H](O)C[C@@H](O)CC(=O)O)c(-c2ccc(F)cc2)c(-c2ccc(F)cc2)c1C(=O)Nc1ccc(CC(N)=O)cc1 (as salt: sodium) [Example 14, (3R,5S)-7-[5-(4-Carbamoylmethyl-phenylcarbamoyl)-3,4-bis-(4-fluoro-phenyl)-1-isopropyl-1H-pyrrol-2-yl]-3,5-dihydroxy-hept-6-enoic Acid Sodium Salt] | 220 to 222 °C |
| CC(C)n1c(CC[C@@H](O)C[C@@H](O)CC(=O)O)c(-c2ccc(F)cc2)c(-c2ccccc2)c1C(=O)NCc1nc2ccccc2[nH]1 (as salt: sodium) [Example 92] | 234 to 236 °C (dec.) |
| CC(C)n1c(CC[C@@H](O)C[C@@H](O)CC(=O)O)c(-c2ccc(F)cc2)c(-c2ccccc2)c1C(=O)NCc1cn2c(n1)CCCC2 (as salt: sodium) [Example 93, (3R,5R)-7-[3-(4-Fluorophenyl)-1-isopropyl-5-[(5,6,7,8-tetrahydro-imidazo[1,2-a]pyridin-2-yl Methyl)carbamoyl]-4-phenyl-1H-pyrrol-2-yl]-3,5-dihydroxyheptanoic Acid Sodium Salt] | 239 to 241 °C (dec.) |
| Cc1c[nH]c(CNC(=O)c2c(-c3ccccc3)c(-c3ccc(F)cc3)c(CC[C@@H](O)C[C@@H](O)CC(=O)O)n2C(C)C)n1 (as salt: sodium) [Example 95] | 213 to 215 °C (dec.) |
| Cc1cnc(CNC(=O)c2c(-c3ccccc3)c(-c3ccc(F)cc3)c(CC[C@@H](O)C[C@@H](O)CC(=O)O)n2C(C)C)cn1 (as salt: sodium) [Example 97, (3R,5R)-7-[3-(4-Fluorophenyl)-1-isopropyl-5-[(5-methylpyrazin-2-ylmethyl)carbamoyl]-4-phenyl-1H-pyrrol-2-yl]-3,5-dihydroxyheptanoic Acid Sodium Salt] | 184 to 188 °C |
| CC(C)n1c(/C=C/[C@@H](O)C[C@@H](O)CC(=O)[O-])c(-c2ccc(F)cc2)c(-c2ccccc2)c1C(=O)Nc1ccccc1.[Na+] [Example 2, (3R,5S)-7-[3-(4-Fluoro-phenyl)-1-isopropyl-4-phenyl-5-phenylcarbamoyl-1H-pyrrol-2-yl]-3,5-dihydroxy-hept-6-enoic Acid Sodium Salt] | 239 to 241 °C |
| CC(C)n1c(CCC(O)C[C@@H](O)CC(=O)[O-])c(-c2ccc(F)cc2)c(-c2ccccc2)c1C(=O)Nc1ccccc1.[Na+] (stereo partly drawn) [Example 3, (3R)-7-[3-(4-Fluoro-phenyl)-1-isopropyl-4-phenyl-5-phenylcarbamoyl-1H-pyrrol-2-yl]-3,5-dihydroxy-heptanoic Acid Sodium Salt] | 240 to 242 °C |
| CC(C)n1c(CC[C@@H](O)C[C@@H](O)CC(=O)[O-])c(-c2ccc(F)cc2)c(-c2ccccc2)c1C(=O)Nc1ccc(S(N)(=O)=O)cc1.[Na+] [Example 4, (3R,5R)-7-[3-(4-Fluoro-phenyl)-1-isopropyl-4-phenyl-5-(4-sulfamoyl-phenylcarbamoyl)-1H-pyrrol-2-yl]-3,5-dihydroxy-heptanoic Acid Sodium Salt] | 265 to 267 °C |
| COC(=O)C[C@H]1C[C@@H](CCc2c(-c3ccc(F)cc3)c(-c3ccc(F)cc3)cn2C(C)C)OC(C)(C)O1 [Example 24, (4R,6R)-(6-{2-[3,4-Bis-(4-fluoro-phenyl)-1-isopropyl-1H-pyrrol-2-yl]-ethyl}-2,2-dimethyl-[1,3]dioxan-4-yl)-acetic Acid Methyl Ester] | 55 to 57 °C |
| CC(C)n1c(/C=C/[C@@H](O)C[C@@H](O)CC(=O)[O-])c(-c2ccc(F)cc2)c(-c2ccc(F)cc2)c1C(=O)Nc1cccc(C(=O)N(C)C)c1.[Na+] [Example 68, trans-(3R,5S)-7-[5-(3-dimethylcarbamoyl-phenylcarbamoyl)-3,4-bis-(4-fluoro-phenyl)-1-isopropyl-1H-pyrrol-yl]-3,5-dihydroxy-hept-6-enoate Sodium Salt] | 210 to 214 °C |
| CC(C)n1c(CC[C@@H](O)C[C@@H](O)CC(=O)[O-])c(-c2ccc(F)cc2)c(-c2ccc(F)cc2)c1C(=O)NCc1ccccn1.[Na+] [Example 69, (3R,5R)-7-{3,4-bis-(4-fluoro-phenyl)-1-isopropyl-5-[(pyridin-2-ylmethyl)-carbamoyl]-1H-pyrrol-2-yl}-3,5-dihydroxy-heptanoate Sodium Salt] | 200 to 205 °C |
| CC(C)n1c(CC[C@@H](O)C[C@@H](O)CC(=O)[O-])c(-c2ccc(F)cc2)c(-c2ccc(F)cc2)c1C(=O)NCc1cccc(S(=O)(=O)N(C)C)c1.[Na+] [Example 71, (3R,5R)-7-[5-(3-dimethylsulfamoyl-benzylcarbamoyl)-3,4-bis-(4-fluoro-phenyl)-1-isopropyl-1H-pyrrol-2-yl]-3,5-dihydroxy-heptanoate Sodium Salt] | 172 to 175 °C |
| Cc1cc(CNC(=O)c2c(-c3ccccc3)c(-c3ccc(F)cc3)c(/C=C/[C@@H](O)C[C@@H](O)CC(=O)[O-])n2C(C)C)no1.[Na+] [Example 79, trans-(3R,5 S)-7-{3-(4-fluoro-phenyl)-1-isopropyl-5-[(5-methyl-isoxazole-3-yl Methyl)-carbamoyl]-4-phenyl-1H-pyrrol-2-yl}-3,5-dihydroxy-hept-6-enoate Sodium Salt] | 200 to 203 °C |
| CC(C)n1c(CC[C@@H](O)C[C@@H](O)CC(=O)[O-])c(-c2ccc(F)cc2)c(-c2ccc(F)cc2)c1C(=O)Nc1ccc(C(=O)N(C)C)cc1.[Na+] [Example 85, (3R,5R)-7-[5-(4-dimethylcarbamoyl-phenylcarbamoyl)-3,4-bis-(4-fluoro-phenyl)-1-isopropyl-1H-pyrrol-yl]-3,5-dihydroxy-heptanoate Sodium Salt] | 220 to 223 °C |
| CC(C)n1c(CC[C@@H](O)C[C@@H](O)CC(=O)[O-])c(-c2ccc(F)cc2)c(-c2ccccc2)c1C(=O)NCCc1ccccc1.[Na+] [Example 91, (3R,5R)-7-[3-(4-Fluorophenyl)-1-isopropyl-5-(phenethylcarbamoyl)-4-phenyl-1H-pyrrol-2-yl]-3,5-dihydroxyheptanoic Acid Sodium Salt] | 197 to 200 °C |
| CC(C)n1c(C=C[C@H](O)C[C@@H](O)CC(=O)[O-])c(-c2ccc(F)cc2)c(-c2ccc(F)cc2)c1C(=O)Nc1ccc(CS(C)(=O)=O)cc1.[Na+] [Example 106, (3R,5R)-7-[3,4-Bis-(4-fluoro-phenyl)-1-isopropyl-5-(4-methanesulfonylmethyl-phenyl-carbamoyl)-1H-pyrrol-2-yl]-3,5-dihydroxy-hept-6-enoic Acid, Sodium Salt] | 256 °C (dec.) |
| CC(C)n1c(CC[C@@H](O)C[C@@H](O)CC(=O)[O-])c(-c2ccc(F)cc2)c(-c2ccccc2)c1C(=O)Nc1cccc(C(=O)N(C)C)c1.[Na+] [Example 108, (3R,5R)-7-[5-(3-Dimethylcarbamoyl-phenylcarbamoyl)-3-(4-fluoro-phenyl)-1-isopropyl-4-phenyl-1H-pyrrol-2-yl]-3,5-dihydroxy-heptanoic Acid, Sodium Salt] | 156 to 205 °C |
| COc1cccc(CNC(=O)c2c(-c3ccc(F)cc3)c(-c3ccc(F)cc3)c(CC[C@@H](O)C[C@@H](O)CC(=O)[O-])n2C(C)C)c1.[Na+] [Example 110, (3R,5R)-7-[3,4-Bis-(4-fluoro-phenyl)-1-isopropyl-5-(3-methoxy-benzylcarbamoyl)-1H-pyrrol-2-yl]-3,5-dihydroxy-heptanoic Acid, Sodium Salt] | 207 to 209 °C |
| CC(N)=CC(=O)CNC(=O)c1c(-c2ccccc2)c(-c2ccc(F)cc2)c(CC[C@@H](O)C[C@@H](O)CC(=O)[O-])n1C(C)C.[Na+] [Example 113, (3R,5R)-7-[5-(4-Amino-2-oxo-pent-3-enylcarbamoyl)-3-(4-fluoro-phenyl)-1-isopropyl-4-phenyl-1H-pyrrol-2-yl]-3,5-dihydroxy-heptanoic Acid, Sodium Salt] | 189 to 193 °C |
